Measurements as given in US20150105252A1, “SUBSTITUTED PYRAZOLES AS HERBICIDES” (E I DU PONT DE NEMOURS AND COMPANY, priority 2013, published 2015).

How the values were obtained:
corn = experiment: Test C postemergence; assay type: in vivo, Zea mays; conditions: for Plant response rating (scale of 0 to 100 where 0 is no effect and 100 is complete control), Corn: Postemergence, 31 g ai/ha, visually evaluated after 13 to 15 days; for Corn plant response rating / Plant response rating, Corn: postemergence; for Corn plant response rating: 62 g ai/ha, scale 0 to 100
How it was run: (§1)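 Seeds were sown in a loam soil–sand blend and sprayed preemergence with compounds formulated in a non-phytotoxic solvent mixture containing surfactant. Postemergence plants, grown in peat/vermiculite medium to 2–18 cm (1- to 4-leaf stage), received the same formulation. After 13 to 15 days in a greenhouse, injury was rated visually against controls (0 = no effect, 100 = complete control).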

ragweed = experiment: Test C preemergence; assay type: in vivo, Ambrosia elation; conditions: preemergence; for Plant response rating, Ragweed: 125 g ai/ha, scale 0 to 100, 0 = no effect, 100 = complete control
How it was run: as §1

ryegrass, Italian [1] = experiment: Test C postemergence; assay type: in vivo, Lolium multiflorum; conditions: postemergence
How it was run: as §1

lambsquarters = experiment: Test C postemergence; assay type: in vivo, Chenopodium album; conditions: for Plant response rating (scale of 0 to 100 where 0 is no effect and 100 is complete control), Lambsquarters: Postemergence, 31 g ai/ha, visually evaluated after 13 to 15 days; for Lambsquarters plant response rating / Plant response rating, Lambsquarters: postemergence; for Lambsquarters plant response rating: 62 g ai/ha, scale 0 to 100
How it was run: as §1

waterhemp [2] = experiment: Test C preemergence; assay type: in vivo, Amaranthus rudis; conditions: preemergence; for Plant response rating, Waterhemp: 125 g ai/ha, scale 0 to 100, 0 = no effect, 100 = complete control
How it was run: as §1

pigweed = experiment: Test A postemergence; assay type: in vivo, Amaranthus retroflexus; conditions: Postemergence
How it was run: (§2)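 Scoring was visual, on a scale where 100 means complete control and 0 means no effect, comparing treated with untreated plants around 10 days post-application. Compounds in surfactant-containing non-phytotoxic solvent were sprayed onto soil preemergence or onto one- to two-leaf seedlings (2–10 cm) postemergence.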

wheat = experiment: Test A preemergence; assay type: in vivo, Triticum aestivum; conditions: preemergence; for Wheat plant response rating (0 to 100 scale): 125 g ai/ha, visual injury approx. 10 days after treatment; for Wheat plant response rating: 500 g ai/ha, visual injury after approx. 10 days, 0 to 100 scale (0 no effect, 100 complete control)
How it was run: as §2

crabgrass, large = experiment: Test C preemergence; assay type: in vivo, Digitaria sanguinalis; conditions: preemergence; for Plant response rating, Crabgrass, Large: 125 g ai/ha, scale 0 to 100, 0 = no effect, 100 = complete control
How it was run: as §1

ducksalad = experiment: Test B flood; assay type: in vivo, Heteranthera limosa; conditions: 250 g ai/ha, visual rating on 0 to 100 scale (0 no effect, 100 complete control), 13 to 15 days
How it was run: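 Plants were grown to the 2-leaf stage and pots flooded to 3 cm above soil. Compounds were applied directly into the paddy water, with depth kept for the test. After 13–15 days in greenhouse, response was rated visually against controls on a 0 (no effect) to 100 (complete control) scale.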

waterhemp [3] = experiment: Test C postemergence; assay type: in vivo, Amaranthus rudis; conditions: postemergence; for Plant response rating, Waterhemp: 250 g ai/ha, scale 0 to 100 (0 no effect, 100 complete control); for Waterhemp plant response rating: scale 0 to 100
How it was run: as §1

ryegrass, Italian [4] = experiment: Test C preemergence; assay type: in vivo, Lolium multiflorum; conditions: preemergence; for Plant response rating, Ryegrass, Italian: 125 g ai/ha, scale 0 to 100, 0 = no effect, 100 = complete control
How it was run: as §1

foxtail, giant = experiment: Test C preemergence; assay type: in vivo, Setaria faberii; conditions: preemergence; for Plant response rating, Foxtail, Giant: 125 g ai/ha, scale 0 to 100, 0 = no effect, 100 = complete control
How it was run: as §1

nutsedge, yellow = experiment: Test C preemergence; assay type: in vivo, Cyperus esculentus; conditions: preemergence; for Plant response rating, Nutsedge, Yellow: 125 g ai/ha, scale 0 to 100, 0 = no effect, 100 = complete control
How it was run: as §1

[5] = 250 g ai/ha, scale 0 to 100 (0 no effect, 100 complete control)
[6] = 125 g ai/ha, scale 0 to 100, 0 no effect, 100 complete control
[7] = 31 g ai/ha, visual rating, scale 0 to 100 (0 no effect, 100 complete control), 13 to 15 days
[8] = 62 g ai/ha, scale 0 to 100 (0 no effect, 100 complete control), 13 to 15 days
[9] = 250 g ai/ha, scale 0 to 100, 0 is no effect, 100 is complete control
[10] = 125 g ai/ha, 0 to 100 scale, 0 no effect, 100 complete control
[11] = 500 g ai/ha, 0 to 100 scale (0 no effect, 100 complete control)

## CCCc1cc(C(=O)NC(C)C)nn1Cc1ccnc(C(F)(F)F)c1 [Compound 186]
corn
  Plant response rating (scale of 0 to 100 where 0 is no effect and 100 is complete control), Corn: 5
  Corn plant response rating: 40
corn; [5]
  Plant response rating, Corn: 65
corn; [6]
  Plant response rating, Corn: 75
ragweed; [7]
  Ragweed plant response rating: 75
ragweed; [8]
  Ragweed plant response rating: 100
ragweed; 13 to 15 days
  Plant response rating, Ragweed: 95
ragweed; [9]
  Ragweed plant response rating: 98
ryegrass, Italian [1]; [5]
  Plant response rating, Ryegrass, Italian: 60
ryegrass, Italian [1]; [6]
  Plant response rating, Ryegrass, Italian: 10
lambsquarters
  Plant response rating (scale of 0 to 100 where 0 is no effect and 100 is complete control), Lambsquarters: 95
  Lambsquarters plant response rating: 65
lambsquarters; [5]
  Plant response rating, Lambsquarters: 98
lambsquarters; [6]
  Plant response rating, Lambsquarters: 75
Waterhemp [2]; [7]
  Waterhemp plant response rating: 100
Waterhemp [2]; [8]
  Waterhemp plant response rating: 100
Waterhemp [2]; 13 to 15 days
  Plant response rating, Waterhemp: 100
Waterhemp [2]; [9]
  Waterhemp plant response rating: 100
pigweed; [10]
  Pigweed plant response rating: 60
pigweed; [11]
  Pigweed plant response rating: 100
wheat
  Wheat plant response rating (0 to 100 scale): 90
  Wheat plant response rating: 100
crabgrass, large; [7]
  Crabgrass, Large plant response rating: 100
crabgrass, large; [8]
  Crabgrass, Large plant response rating: 100
crabgrass, large; 13 to 15 days
  Plant response rating, Crabgrass, Large: 100
crabgrass, large; [9]
  Crabgrass, Large plant response rating: 100
ducksalad
  Plant response rating, Ducksalad: 80
Waterhemp [3]
  Plant response rating, Waterhemp: 90
  Waterhemp plant response rating: 60
ryegrass, Italian [4]; [7]
  Ryegrass, Italian plant response rating: 5
ryegrass, Italian [4]; [8]
  Ryegrass, Italian plant response rating: 80
ryegrass, Italian [4]; 13 to 15 days
  Plant response rating, Ryegrass, Italian: 90
ryegrass, Italian [4]; [9]
  Ryegrass, Italian plant response rating: 90
foxtail, giant; [7]
  Foxtail, Giant plant response rating: 100
foxtail, giant; [8]
  Foxtail, Giant plant response rating: 100
foxtail, giant; 13 to 15 days
  Plant response rating, Foxtail, Giant: 100
foxtail, giant; [9]
  Foxtail, Giant plant response rating: 100
nutsedge, yellow; [7]
  Nutsedge, Yellow plant response rating: 10
nutsedge, yellow; [8]
  Nutsedge, Yellow plant response rating: 60
nutsedge, yellow; 13 to 15 days
  Plant response rating, Nutsedge, Yellow: 85
nutsedge, yellow; [9]
  Nutsedge, Yellow plant response rating: 98

## CCCNC(=O)c1cc(OCC)n(Cc2ccnc(C(F)(F)F)c2)n1 [Compound 187]
corn
  Plant response rating (scale of 0 to 100 where 0 is no effect and 100 is complete control), Corn: 5
  Corn plant response rating: 5
corn; [5]
  Plant response rating, Corn: 65
corn; [6]
  Plant response rating, Corn: 60
ragweed; [7]
  Ragweed plant response rating: 80
ragweed; [8]
  Ragweed plant response rating: 100
ragweed; 13 to 15 days
  Plant response rating, Ragweed: 98
ragweed; [9]
  Ragweed plant response rating: 100
ryegrass, Italian [1]; [5]
  Plant response rating, Ryegrass, Italian: 30
ryegrass, Italian [1]; [6]
  Plant response rating, Ryegrass, Italian: 5
lambsquarters
  Plant response rating (scale of 0 to 100 where 0 is no effect and 100 is complete control), Lambsquarters: 60
  Lambsquarters plant response rating: 75
lambsquarters; [5]
  Plant response rating, Lambsquarters: 90
lambsquarters; [6]
  Plant response rating, Lambsquarters: 75
Waterhemp [2]; [7]
  Waterhemp plant response rating: 100
Waterhemp [2]; [8]
  Waterhemp plant response rating: 100
Waterhemp [2]; 13 to 15 days
  Plant response rating, Waterhemp: 100
Waterhemp [2]; [9]
  Waterhemp plant response rating: 100
pigweed; [10]
  Pigweed plant response rating: 100
pigweed; [11]
  Pigweed plant response rating: 90
wheat
  Wheat plant response rating (0 to 100 scale): 80
  Wheat plant response rating: 100
crabgrass, large; [7]
  Crabgrass, Large plant response rating: 100
crabgrass, large; [8]
  Crabgrass, Large plant response rating: 100
crabgrass, large; 13 to 15 days
  Plant response rating, Crabgrass, Large: 100
crabgrass, large; [9]
  Crabgrass, Large plant response rating: 100
ducksalad
  Plant response rating, Ducksalad: 90
Waterhemp [3]
  Plant response rating, Waterhemp: 95
  Waterhemp plant response rating: 70
ryegrass, Italian [4]; [7]
  Ryegrass, Italian plant response rating: 50
ryegrass, Italian [4]; [8]
  Ryegrass, Italian plant response rating: 80
ryegrass, Italian [4]; 13 to 15 days
  Plant response rating, Ryegrass, Italian: 90
ryegrass, Italian [4]; [9]
  Ryegrass, Italian plant response rating: 90
foxtail, giant; [7]
  Foxtail, Giant plant response rating: 100
foxtail, giant; [8]
  Foxtail, Giant plant response rating: 100
foxtail, giant; 13 to 15 days
  Plant response rating, Foxtail, Giant: 100
foxtail, giant; [9]
  Foxtail, Giant plant response rating: 100
nutsedge, yellow; [7]
  Nutsedge, Yellow plant response rating: 25
nutsedge, yellow; [8]
  Nutsedge, Yellow plant response rating: 60
nutsedge, yellow; 13 to 15 days
  Plant response rating, Nutsedge, Yellow: 85
nutsedge, yellow; [9]
  Nutsedge, Yellow plant response rating: 98
